Source: the NIST ThermoML archive (doi:10.1016/j.fluid.2013.08.029)

Test: xn = mol fraction of the nth substance listed
Settings: 101 kPa, Liquid; for speed of sound: Sing-around technique in a fixed-path interferometer; for mass density: Vibrating tube method

CCCCCn1cc[n+](C)c1.F[B-](F)(F)F [1-methyl-3-pentyl-imidazolium tetrafluoroborate] + OCCO
Settings | mass density [kg/m3] | speed of sound [m/s]
288.15 K, x1 = 0.0549 | 1127.51 | 1659
288.15 K, x1 = 0.1148 | 1135.95 | 1639.3
288.15 K, x1 = 0.2053 | 1145.61 | 1617.1
288.15 K, x1 = 0.3086 | 1153.94 | 1599.3
288.15 K, x1 = 0.4154 | 1160.64 | 1587.3
288.15 K, x1 = 0.5063 | 1165.13 | 1580.3
288.15 K, x1 = 0.6273 | 1170.27 | 1573.1
288.15 K, x1 = 0.7138 | 1173.4 | 1569.8
288.15 K, x1 = 0.7982 | 1176.33 | 1567.9
288.15 K, x1 = 0.8985 | 1179.69 | 1565.9
293.15 K, x1 = 0.0549 | 1123.89 | 1646.9
293.15 K, x1 = 0.1148 | 1132.23 | 1627.2
293.15 K, x1 = 0.2053 | 1141.81 | 1604.6
293.15 K, x1 = 0.3086 | 1150.12 | 1586.9
293.15 K, x1 = 0.4154 | 1156.84 | 1575
293.15 K, x1 = 0.5063 | 1161.54 | 1567.7
293.15 K, x1 = 0.6273 | 1166.54 | 1560.8
293.15 K, x1 = 0.7138 | 1169.75 | 1558.1
293.15 K, x1 = 0.7982 | 1172.71 | 1556.8
293.15 K, x1 = 0.8985 | 1176.11 | 1555.3
298.15 K, x1 = 0.0549 | 1120.27 | 1634.8
298.15 K, x1 = 0.1148 | 1128.52 | 1615.1
298.15 K, x1 = 0.2053 | 1138.01 | 1592.4
298.15 K, x1 = 0.3086 | 1146.31 | 1574.7
298.15 K, x1 = 0.4154 | 1153.05 | 1562.7
298.15 K, x1 = 0.5063 | 1157.88 | 1555.5
298.15 K, x1 = 0.6273 | 1162.86 | 1548.3
298.15 K, x1 = 0.7138 | 1166.1 | 1544.8
298.15 K, x1 = 0.7982 | 1169.1 | 1542.3
298.15 K, x1 = 0.8985 | 1172.64 | 1540.3
303.15 K, x1 = 0.0549 | 1116.63 | 1622.8
303.15 K, x1 = 0.1148 | 1124.81 | 1602.9
303.15 K, x1 = 0.2053 | 1134.22 | 1580.2
303.15 K, x1 = 0.3086 | 1142.5 | 1562.5
303.15 K, x1 = 0.4154 | 1149.27 | 1550.6
303.15 K, x1 = 0.5063 | 1154.21 | 1543.2
303.15 K, x1 = 0.6273 | 1159.19 | 1536.5
303.15 K, x1 = 0.7138 | 1162.48 | 1532.8
303.15 K, x1 = 0.7982 | 1165.5 | 1530.3
303.15 K, x1 = 0.8985 | 1169.12 | 1528.5
308.15 K, x1 = 0.0549 | 1113 | 1609.9
308.15 K, x1 = 0.1148 | 1121.09 | 1590.9
308.15 K, x1 = 0.2053 | 1130.44 | 1568.1
308.15 K, x1 = 0.3086 | 1138.71 | 1550.4
308.15 K, x1 = 0.4154 | 1145.51 | 1538.5
308.15 K, x1 = 0.5063 | 1150.46 | 1531.2
308.15 K, x1 = 0.6273 | 1155.52 | 1524.5
308.15 K, x1 = 0.7138 | 1158.87 | 1521
308.15 K, x1 = 0.7982 | 1161.91 | 1518.5
308.15 K, x1 = 0.8985 | 1165.59 | 1516.9
313.15 K, x1 = 0.0549 | 1109.35 | 1598.2
313.15 K, x1 = 0.1148 | 1117.37 | 1578.9
313.15 K, x1 = 0.2053 | 1126.66 | 1556.1
313.15 K, x1 = 0.3086 | 1134.93 | 1538.4
313.15 K, x1 = 0.4154 | 1141.76 | 1526.5
313.15 K, x1 = 0.5063 | 1146.71 | 1519.5
313.15 K, x1 = 0.6273 | 1151.88 | 1512.8
313.15 K, x1 = 0.7138 | 1155.26 | 1509.2
313.15 K, x1 = 0.7982 | 1158.35 | 1506.4
313.15 K, x1 = 0.8985 | 1162.04 | 1505.3
318.15 K, x1 = 0.0549 | 1105.67 | 1586.7
318.15 K, x1 = 0.1148 | 1113.63 | 1566.9
318.15 K, x1 = 0.2053 | 1122.88 | 1544.2
318.15 K, x1 = 0.3086 | 1131.15 | 1526.6
318.15 K, x1 = 0.4154 | 1138.02 | 1514.6
318.15 K, x1 = 0.5063 | 1142.8 | 1507.7
318.15 K, x1 = 0.6273 | 1148.22 | 1501.5
318.15 K, x1 = 0.7138 | 1151.65 | 1497.7
318.15 K, x1 = 0.7982 | 1154.78 | 1495.5
318.15 K, x1 = 0.8985 | 1158.38 | 1494
